Measured values as given in patent US5041238A, “o,o'-Bridged oligophenylene laser dyes, dyestuff lasers and methods of lasing therewith” (Exciton Chemical Company, priority 1988, dated 1991).
One block for each compound: values may come before it.

Assays:
[1] = Fluorescence emission spectrum (Perkin-Elmer MPF-44A); type: physicochemical; conditions: for Fluorescence peak 1, intensity / Fluorescence peak 1, wavelength / Fluorescence peak 2, intensity / Fluorescence peak 2, wavelength / Fluorescence emission peak 1, intensity / Fluorescence emission peak 1, wavelength / Fluorescence emission peak 2, intensity / Fluorescence emission peak 2, wavelength: slits 2 nm; for Fluorescence emission peak 1, intensity / Fluorescence emission peak 1, wavelength / Fluorescence emission peak 2, intensity / Fluorescence emission peak 2, wavelength: excitation 265 nm
From the text: (§1) The fluorescence emission spectrum for the dye 9,9-dipropylfluorene as illustrated in FIG. 1 was detected on a Perkin-Elmer MPF-44A, the slits were set at 2 nm and the excitation light was at 265 nm. The Fluorescence Quantum Efficiency (FQE) was about the same as that of fluorene - 55%; and the fluorescence emission peaks at 306 nm(intensity 86) and 316 nm(intensity 67) were also similar to those of fluorene [the fluorescence emission spectrum for fluorene as illustrated in FIG. 5 was also detected on a Perkin-Elmer MPF-44A, the slits were set at 2 nm and the excitation light was at 265 nm and the fluorescence emission peaks for fluorene are at 303 nm(intensity 93) and 311 nm(intensity 73)].
This dye had two fluorescence peaks of almost equal intensity at 360 nm(intensity 33) and 378 nm(intensity 28) as illustrated in FIG. 2. […] The fluorescence emission spectrum of the dye 9,9,9',9'-tetrapropyl-2,2'-bifluorene was detected on a Perkin-Elmer MPF-44A, the slits were set at 2 nm and the excitation light was at 331 nm.
(§2) This dye had fluorescence peaks at 324 nm(intensity 90) and 338 nm(intensity 76) and a reported fluorescence quantum yield of 100% in cyclohexane as illustrated in FIG. 3. […] The fluorescence emission spectrum for the dye 3-phenyldibenzofuran as illustrated in FIG. 3 was detected on a Perkin-Elmer MPF-44A, the slits were set at 2 nm and the excitation light was at 301 nm.
The dye, 3,3'-bi(dibenzofuran), was prepared in accordance with the process disclosed in H. O. Wirth, G. Waese and W. Kern: Synthese Und Eigenschaften Von: Oxydo-p-oligophenylenen. Makromol. Chem. 86: 139(1965) which is incorporated herein in its entirety by reference, and was purified by extraction from Brockmann Activity I alumina with chloroform in an Ace-Kauffman column to give a white solid, mp 249.5°-250.5° C. (lit.mp 252.5° C.). This dye had two fluorescence peaks of almost equal intensity at 353 nm(intensity 47) and 369 nm(intensity 30) in cyclohexane as illustrated in FIG. 4.

[2] = Solubilities of o,o'-bridged oligophenylenes at 21° C. in laser solvents; type: physicochemical; conditions: comparison in laser solvents
Procedure: SOLUBILITIES OF o,o'-BRIDGED OLIGOPHENYLENES AT 21° C.

[3] = cyclohexane; cited from earlier work
[4] = Fluorescence quantum efficiency / quantum yield; type: physicochemical
From the text: as §1, §2

[5] = Violet fluorescence in alcohols; type: physicochemical
Procedure: The dye, 9,9'-diethyl-2,2'-bicarbazole, was prepared from the above intermediate as follows. To a mixture of 1.10 g (4 mMol) of 2-bromo-9-ethylcarbazole and 0.096 g of cut magnesium ribbon in 4 ml of refluxing ether was added 50 microliters of 1,2-dibromoethane. Refluxing was continued for 18 hrs. The solution was cooled and 386 microliters (0.455 g) of cis-1,4-dichloro-2-butene was added. As the solution was returned to reflux, a precipate appeared. After three hours the mixture was filtered. The solid was recrystallized from 2-methoxyethanol with a hot filtration to give 0.124 g (12% of theory) of product, mp 239°-40° C.

Structure (SMILES): c1ccc2c(c1)oc1cc(-c3ccc4c(c3)oc3ccccc34)ccc12 [3,3'-bi(dibenzofuran)]
Fluorescence emission spectrum compared with dye of Example 2 [1]: almost superimposable on that of the dye discussed in Example 2
Fluorescence peak 1, intensity ([1]; cyclohexane, excitation 323 nm): 47
Fluorescence peak 1, wavelength ([1]; cyclohexane, excitation 323 nm): 353 nm
Fluorescence peak 2, intensity ([1]; cyclohexane, excitation 323 nm): 30
Fluorescence peak 2, wavelength ([1]; cyclohexane, excitation 323 nm): 369 nm
Solubility compared with another dye (words) [2]: greater than that of 2,2'-bifluorene

Structure (SMILES): c1ccc(-c2ccc3c(c2)oc2ccccc23)cc1 [3-phenyldibenzofuran]
Fluorescence quantum yield (reported) [3]: 100%
FQE in methanol compared with cyclohexane [4]: the same in methanol as in cyclohexane
Fluorescence peak 1, intensity ([1]; cyclohexane, excitation 301 nm): 90
Fluorescence peak 1, wavelength ([1]; cyclohexane, excitation 301 nm): 324 nm
Fluorescence peak 2, intensity ([1]; cyclohexane, excitation 301 nm): 76
Fluorescence peak 2, wavelength ([1]; cyclohexane, excitation 301 nm): 338 nm
Solubility compared with another dye (words) [2]: much greater than that of p-terphenyl
Solubility compared with another dye (words) ([2]; listed as 3phenyldibenzofuran): much more soluble in methanol, 50% ethanol, 95% ethanol and absolute

Structure (SMILES): CCn1c2ccccc2c2ccc(-c3ccc4c5ccccc5n(CC)c4c3)cc21 [9,9'-diethyl-2,2'-bicarbazole]
Violet fluorescence in alcohols compared with compounds of Examples 2 and 4 [5]: brighter violet fluorescence in alcohols than the compounds of Examples 2 and 4

Now from value to compound, other results behind:

Fluorescence peak 1, intensity ([1]; excitation 331 nm): 33
Fluorescence peak 1, wavelength ([1]; excitation 331 nm): 360 nm
Fluorescence peak 2, intensity ([1]; excitation 331 nm): 28
Fluorescence peak 2, wavelength ([1]; excitation 331 nm): 378 nm
Structure (SMILES): CCCC1(CCC)c2ccccc2-c2ccc(-c3ccc4c(c3)C(CCC)(CCC)c3ccccc3-4)cc21 [9,9,9',9'-tetrapropyl-2,2'-bifluorene]
Solubility compared with another dye (words) [2]: more soluble than 2,2'-bifluorene in solvents

Fluorescence emission peak 1, intensity [1]: 86
Fluorescence emission peak 1, wavelength [1]: 306 nm
Fluorescence emission peak 2, intensity [1]: 67
Fluorescence emission peak 2, wavelength [1]: 316 nm
Structure (SMILES): CCCC1(CCC)c2ccccc2-c2ccccc21 [9,9-dipropylfluorene]

Fluorescence emission peak 1, intensity [1]: 93
Fluorescence emission peak 1, wavelength [1]: 303 nm
Fluorescence emission peak 2, intensity [1]: 73
Fluorescence emission peak 2, wavelength [1]: 311 nm
Structure (SMILES): c1ccc2c(c1)Cc1ccccc1-2 [fluorene, reference compound]
